In data set [1] the test system is T. cruzi epimastigotes. Put plainly: T. cruzi epimastigotes growth inhibition, [3H] thymidine uptake assay. In kind it is cell-based, Trypanosoma cruzi. The note with it: for SI (selectivity index, relation between CC50 and IC50): CC50 splenocytes / IC50 epimastigotes; for IC50: 72 h, read-out: IC50 (μg/mL) ± SD on T. cruzi epimastigotes.
For data set [2], the system named is T. cruzi (K-98 clone). The data set is described as follows: In vivo trypanocidal activity, murine model of Chagas disease. Further details: species or system BALB/c mice. The note with it: 1 mg/kg/day i.p.
For data set [3], the system named is T. cruzi epimastigotes. The note with it: ref [14], cited from earlier work.
In data set [4] the test system is HeLa cells. The note with it: read-out: IC50, cytotoxicity on HeLa cells, ref [28]; cited from earlier work.

≈ marks a conversion by molar mass, not a printed value.

A word on the inhibition: it is the share of the control response that was lost under treatment. For `C=C1C(=O)O[C@@H]2C[C@@H](C)[C@@H]3C=CC(=O)[C@@]3(C)[C@@H](O)[C@H]12` [compound 10, helenalin], the “SI (selectivity index, relation between CC50 and IC50)” value in data set [1] is recorded as 1.1. For the same molecule, the IC50 in data set [1] (Trypanosoma cruzi) worked out at 0.29 ± 0.05 µg/mL (≈ 1.11 µM). Besides, in data set [1] (Trypanosoma cruzi, read-out: inhibition of parasite replication), the inhibition at 1.5 µg/mL came out at 66%.
As for `C=C1C(=O)O[C@@H]2[C@H]1CC[C@H](C)[C@@]1(O)C=CC(=O)[C@@]21C` [compound 14, hymenin], the “SI (selectivity index, relation between CC50 and IC50)” value in data set [1] worked out at 0.8. Further, the IC50 in data set [1] (Trypanosoma cruzi) was found to be 1.5 ± 0.09 µg/mL (≈ 5.72 µM).
On to `O=C(Cn1ccnc1[N+](=O)[O-])NCc1ccccc1` [benznidazole], for which the IC50 in data set [1] (Trypanosoma cruzi) is 1 ± 0.62 µg/mL (≈ 3.84 µM). The “area under the parasitemia curve (AUC)” value in data set [2] (days 11-15 post-infection) was 4. In addition, the sterile cure result in data set [2] (five days) is recorded as “neither Bz was able to cure”.
As to `COC1=C(C(C)C)C(=O)C2=C(C[C@@]34CCCC(C)(C)[C@@H]3C[C@]2(O)O4)C1=O` [K, Komaroviquinone], in data set [3] (T. cruzi epimastigotes), the IC50 of komaroviquinone entry is “a Komaroviquinone IC50 = 1.00 μg/mL ref ([14])”. For the same molecule, the “log (1/IC50) of komaroviquinone” value in data set [3] (from IC50 = 1.00 μg/mL, IC50 in molar) was 5.43.
Consider `C=C1C[C@H](O)[C@H](Br)C(C)(C)[C@@]12CCC(C)=C(Cl)C2` [elatol], for which the IC50 in data set [4] is 1.3 µM.

These data come from article PMC8757452 (ACS Omega, 2021).
